{"source": "patent US20100062986A1", "about": "“METHOD TO TREAT BLOOD CELL DEPLETION” (ImmuneRegen Biosciences, Inc., priority 2006, published 2010)", "tested_on": "mice exposed to a lethal dose of 60Co radiation", "test": "Radilex treatment of mice after lethal 60Co radiation exposure (survival, blood counts)", "assay_type": "in vivo, mice (C57BL/6J)", "source_text": "One purpose of the study is to determine the effects of Radilex™ ([Sar^9, Met(02)^11]-Substance P) after exposure to a lethal dose of ^60Co radiation exposure. Another purpose of the study is to determine if intra-muscular injections of Radilex™ can be as effective as aerosol inhalation of Radilex™ at 8Gy ^60Co radiation level.\nBlood draws (2 animals per group rotating every 5 days) for erythrocytes, leukocytes and platelets were taken to assess anemia, neutropenia and thrombocytopenia. Counts of erythrocytes, leukocytes and platelets were taken to assess anemia, neutropenia and thrombocytopenia and act as indicators of bone marrow damage and/or immune system destruction.\nThe mice received Radilex™ treatment within 2 hours of radiation exposure. The Radilex™ dosage was administered in a volume of 0.01 ml in a daily single treatment via IM injection into the hind limb muscle a single time, for the duration of the study (30 days), or until death.\nThe following regimens were tested on groups of 9-11 mice:\n10 mM Radilex™ single intramuscular treatment\n1 mM Radilex™ single intramuscular treatment\n1 mM Radilex™ daily intramuscular treatment\n75 uM Radilex™ single intramuscular treatment\n75 uM Radilex™ daily intramuscular treatment\n10 uM Radilex™ daily via nebulizer\n50 uM Radilex™ daily via nebulizer\n75 uM Radilex™ daily via nebulizer\n100 uM Radilex™ daily via nebulizer […]"}
{"substance": "[Sar^9, Met(02)^11]-Substance P [Radilex™]", "values": [{"measurement": "Radioprotection: effects of lethal exposure", "setting": "mice, lethal 60Co radiation, Radilex intramuscular or via nebulizer, first treatment within 2 hours of exposure", "result": "Reversed"}, {"measurement": "Neutropenia and anemia", "setting": "surviving animals after 60Co radiation, white cell count and hematocrit", "result": "Reversed"}]}
